Series [1] in a line: Example I: ten symptomatic HIV patients treated with delta-9-tetrahydrocannabinol as dronabinol, weight change. The format is in vivo, human. The protocol: Soft gelatin capsules were filled with delta-9-tetrahydrocannabinol in sesame oil (dronabinol). Capsules were filled with 2.5 mg delta-9-tetrahydrocannabinol per capsule or 5 mg delta-9-tetrahydrocannabinol per capsule.
Ten symptomatic HIV patients were treated with delta-9-tetrahydrocannabinol. […] The infectious complications which they had represent the spectrum of those usually seen in a symptomatic HIV-infected population.
Most of the patients had received or were on antiviral therapy, primarily zidovudine (azidothymidine). Two had previously received and one was receiving megesterol acetate as well. Patients received delta-9-tetrahydrocannabinol as dronabinol (delta-9-tetrahydrocannabinol in sesame oil in soft gelatin capsules), usually at a dose of 2.5 mg, for one to five months. Treatment continued for most of the patients at the time of this analysis. The dose varied. The patients were instructed to take medication up to four times daily as needed; many took it somewhat less often.
Initially, patients were losing a median of 0.93 kg/mo. On therapy, they gained 0.54 kg/mo. The median difference on versus pre-therapy was 1.92 kg/mo.

For series [2] the following is noted: children and adolescents 6-19 years of age; cited from earlier work.
The conditions of series [3]: cancer chemotherapy patients; compared with prochlorperazine; cited from earlier work.
The conditions of series [4]: advanced cancer patients on chemotherapy, versus those not receiving it; cited from earlier work.
Series [5] in a line: Example II: prospective dose-ranging study of dronabinol in patients with symptomatic HIV infection, weight change and side effects. The format is in vivo, human. The protocol: In a prospective, dose-ranging study, 23 patients with symptomatic HIV infection were treated with dronabinol at a dose of 2.5 mg twice daily to 5.0 mg three times daily. Of these, 13 completed approximately one month on therapy.
At a dose which appears optimal, seven of eight patients completed one month treatment. […] Most of those patients who did experience side effects found them tolerable. […] The median rate of weight loss prior to therapy was 1.62 kg/mo; on therapy, the median weight gain was 1.56 kg/mo. The median improvement in the rate of weight change was 3.06 kg/mo, or approximately 1.5 lbs/wk.

The conditions of series [6]: oral; cancer chemotherapy patients; crossover; cited from earlier work.
For series [7] the following is noted: cancer patients, open study; cited from earlier work.

The structures appear in SMILES notation.

Regarding `CCCCCc1cc(O)c2c(c1)OC(C)(C)[C@@H]1CCC(C)=C[C@@H]21` [delta-9-tetrahydrocannabinol], the “number of patients who gained weight” value is “Seven patients gained weight” in series [1] (of ten symptomatic HIV patients); “seven gained weight” in series [5] (all doses, 2.5 mg twice daily to 5.0 mg three times daily, of 13 patients completing about one month on therapy); “five of the seven patients gained weight” in series [5] (dose which appears optimal, of seven patients completing one month). In series [1] (of ten symptomatic HIV patients, besides those who gained weight), the “number of patients with a decrease in weight loss” value was “two others had a decrease in weight loss”. The “median difference in rate of weight change, on versus pre-therapy” value in series [1] (ten symptomatic HIV patients, usually 2.5 mg oral, one to five months) came out at 1.92 kg/mo. Also, the “median weight gain on therapy” value in series [1] (ten symptomatic HIV patients, usually 2.5 mg oral, up to four times daily as needed, one to five months, pre-therapy median loss 0.93 kg/mo) turned out to be 0.54 kg/mo; in series [5] (dose which appears optimal, pre-therapy median loss 1.62 kg/mo) it was 1.56 kg/mo. Besides, the appetite stimulating effect entry in series [2] is “Results suggestive of an appetite stimulating effect”. Besides, the reported hunger result in series [3] was “reported feeling more hungry than patients on prochlorperazine”. The weight maintenance entry in series [4] is given as “maintained their weight better”. The side effects result in series [5] (dose which appears optimal) was “most patients did not experience side effects”. Besides, the “median improvement in the rate of weight change” value in series [5] (dose which appears optimal, converted from kg/mo) is recorded as “approximately 1.5 lbs/wk”; in series [5] (dose which appears optimal, on therapy versus prior to therapy), 3.06 kg/mo. Also, in series [6], the “subjects reporting an increased food intake” value was 50%. Moreover, the appetite entry in series [7] is “appetite increases”. The “rate of weight loss” value in series [7] was “lessening of the rate of weight loss”.

Values taken from patent US6703418B2, “Appetite stimulation and induction of weight gain in patients suffering from symptomatic HIV infection” (Unimed Pharmaceuticals, Inc., priority 1991, dated 2004).
